In ChEMBL document CHEMBL1136678, “Novel indole-based inhibitors of IMPDH: introduction of hydrogen bond acceptors at indole C-3” (Bioorg Med Chem Lett, 2003) one finds IC50 data, which are given here for twelve compounds.

Assay [1] has as its target Inosine-5'-monophosphate dehydrogenase 2 (Homo sapiens, UniProt P12268). The experiment in a line: Inhibition of 5'-inosine monophosphate dehydrogenase type II (IMPDH II).
Assay [2] concerns CCRF-CEM. Briefly: Inhibition of CEM T-cell proliferation. Conditions: Homo sapiens. Type of assay: functional, cell-based.
Assay [3] has as its target Inosine-5'-monophosphate dehydrogenase 1 (Homo sapiens, UniProt P20839). Briefly: Inhibition of 5'-inosine monophosphate dehydrogenase type I (IMPDH I).

Sequence of Inosine-5'-monophosphate dehydrogenase 1 (P20839 whole entry): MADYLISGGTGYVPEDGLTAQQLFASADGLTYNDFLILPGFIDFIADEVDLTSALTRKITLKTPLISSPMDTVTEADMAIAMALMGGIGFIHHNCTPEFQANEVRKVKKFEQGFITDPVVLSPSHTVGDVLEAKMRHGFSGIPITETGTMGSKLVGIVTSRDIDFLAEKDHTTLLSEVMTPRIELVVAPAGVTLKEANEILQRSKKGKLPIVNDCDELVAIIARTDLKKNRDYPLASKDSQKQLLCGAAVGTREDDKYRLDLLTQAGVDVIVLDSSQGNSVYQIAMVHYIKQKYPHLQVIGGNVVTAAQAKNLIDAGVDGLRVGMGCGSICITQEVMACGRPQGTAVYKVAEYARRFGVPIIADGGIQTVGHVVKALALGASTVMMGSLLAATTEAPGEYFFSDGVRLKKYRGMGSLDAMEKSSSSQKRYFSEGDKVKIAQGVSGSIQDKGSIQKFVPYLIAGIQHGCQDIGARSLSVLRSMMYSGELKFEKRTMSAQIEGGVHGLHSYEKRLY

Take `COc1cc2[nH]c(-c3ccccc3)c(C=O)c2cc1-c1cnco1`: the half-maximal inhibitory concentration (IC50) in assay [1] is 230 nM.
The same measure, in the same setting: as for `COc1cc2[nH]c(-c3csc4ccccc34)cc2cc1-c1cnco1`, the figure is 500 nM; as for `CCOC(=O)c1c(-c2ccccc2)[nH]c2cc(OC)c(-c3cnco3)cc12`, > 1000 nM.
Take `COc1cc2[nH]c(Cc3ccccc3)c(C=O)c2cc1-c1cnco1`: in assay [1], half-maximal inhibition (IC50) required 360 nM.
`COc1cc2[nH]c3c(c2cc1-c1cnco1)CCCC(=O)C3`: in assay [1], the half-maximal inhibitory concentration (IC50) came out at 150 nM.
For `COc1cc2[nH]c(-c3ccccc3)c(C#N)c2cc1-c1cnco1`, half-maximal inhibition in assay [1] (IC50) required 130 nM.
`COc1cc2[nH]c(-c3ccccc3)cc2cc1-c1cnco1`: the figures for the IC50 in assay [2] and in assay [1] were > 10000 nM and 500 nM, respectively.
For the compound `COc1cc2[nH]c(Cc3ccccc3)c(C#N)c2cc1-c1cnco1`, the IC50 in assay [1] was 220 nM.
In the case of `COc1cc2[nH]c3c(c2cc1-c1cnco1)CC(=O)CC3`, the IC50 in assay [1] is 290 nM.
`COc1cc2[nH]c(Cc3ccccc3)cc2cc1-c1cnco1` displayed an IC50 in assay [1] of 600 nM.
`COc1cc2[nH]c(-c3csc4ccccc34)c(C#N)c2cc1-c1cnco1` gave an IC50 in assay [1] of 64 nM.
For the compound `COc1cc2[nH]c(-c3csc4ccccc34)c(C=O)c2cc1-c1cnco1`, the results for the IC50 in assay [2], in assay [3] and in assay [1] were 550 nM, 160 nM and 30 nM, respectively.

The IC50 is the concentration needed to halve the response being measured. Lower therefore signals greater potency in that assay.
